ChEMBL document CHEMBL2086297, “Reduced pulmonary surfactant interaction of daptomycin analogs via tryptophan replacement with alternative amino acids” (2012)
Values after ≈ are worked out from the molar mass of the structure shown.

Assays:
Format in all cases: functional
Streptococcus pneumoniae = assay: Antibacterial activity against Streptococcus pneumoniae
Staphylococcus aureus [1] = assay: Antibacterial activity against methicillin-susceptible Staphylococcus aureus ATCC 29213 grown on calcium supplemented Mueller-Hinton broth by broth microdilution method
Staphylococcus aureus [2] = assay: Antibacterial activity against methicillin-susceptible Staphylococcus aureus ATCC 29213 by broth microdilution method in presence of 5% pulmonary surfactant; conditions: ATCC 29213, Pulmonary surfactant
Staphylococcus aureus [3] = assay: Antibacterial activity against methicillin-susceptible Staphylococcus aureus ATCC 29213 by broth microdilution method in presence of 4% human serum albumin
Staphylococcus aureus [4] = assay: Antibacterial activity against methicillin-susceptible Staphylococcus aureus ATCC 29213 by broth microdilution method in presence of 1% pulmonary surfactant; conditions: ATCC 29213, Pulmonary surfactant

Row | MIC (Staphylococcus aureus [1]) [µg/mL] | MIC (Staphylococcus aureus [2]) [µg/mL] | MIC (Staphylococcus aureus [3]) [µg/mL] | MIC (Staphylococcus aureus [4]) [µg/mL] | Structure (SMILES) | MIC90 (Streptococcus pneumoniae) [µg/mL]
1 | 4 (≈ 2.5 µM) | > 32 | 32 | 32 | CCCCCCCCCC(=O)N[C@@H](COc1ccccc1)C(=O)N[C@@H](CC(N)=O)C(=O)N[C@@H](CC(=O)O)C(=O)N[C@@H]1C(=O)NCC(=O)N[C@@H](CCCN)C(=O)N[C@@H](CC(=O)O)C(=O)N[C@H](C)C(=O)N[C@@H](CC(=O)O)C(=O)NCC(=O)N[C@H](CO)C(=O)N[C@@H]([C@@H](C)CC(=O)O)C(=O)N[C@@H](CC(=O)c2ccccc2N)C(=O)O[C@@H]1C | –
2 | 1 (≈ 0.627 µM) | 32 | 4 | 8 | CCCCCCCCCC(=O)N[C@@H](CCc1ccccc1)C(=O)N[C@@H](CC(N)=O)C(=O)N[C@@H](CC(=O)O)C(=O)N[C@@H]1C(=O)NCC(=O)N[C@@H](CCCN)C(=O)N[C@@H](CC(=O)O)C(=O)N[C@H](C)C(=O)N[C@@H](CC(=O)O)C(=O)NCC(=O)N[C@H](CO)C(=O)N[C@@H]([C@@H](C)CC(=O)O)C(=O)N[C@@H](CC(=O)c2ccccc2N)C(=O)O[C@@H]1C | –
3 | 16 (≈ 9.75 µM) | 16 | 32 | 16 | CCCCCCCCCC(=O)N[C@@H](Cc1ccc(OC)c(OC)c1)C(=O)N[C@@H](CC(N)=O)C(=O)N[C@@H](CC(=O)O)C(=O)N[C@@H]1C(=O)NCC(=O)N[C@@H](CCCN)C(=O)N[C@@H](CC(=O)O)C(=O)N[C@H](C)C(=O)N[C@@H](CC(=O)O)C(=O)NCC(=O)N[C@H](CO)C(=O)N[C@@H]([C@@H](C)CC(=O)O)C(=O)N[C@@H](CC(=O)c2ccccc2N)C(=O)O[C@@H]1C | –

Row | Structure (SMILES) | MIC (Staphylococcus aureus [1]) [µg/mL] | MIC (Staphylococcus aureus [2]) [µg/mL] | MIC (Staphylococcus aureus [3]) [µg/mL] | MIC (Staphylococcus aureus [4]) [µg/mL] | MIC90 (Streptococcus pneumoniae) [µg/mL]
4 | CCCCCCCCCC(=O)N[C@@H](Cc1c[nH]c2ccccc12)C(=O)N[C@H](CC(N)=O)C(=O)N[C@@H](CC(=O)O)C(=O)N[C@@H]1C(=O)NCC(=O)N[C@@H](CCCN)C(=O)N[C@@H](CC(=O)O)C(=O)N[C@H](C)C(=O)N[C@@H](CC(=O)O)C(=O)NCC(=O)N[C@H](CO)C(=O)N[C@@H]([C@H](C)CC(=O)O)C(=O)N[C@@H](CC(=O)c2ccccc2N)C(=O)O[C@@H]1C | 1 (≈ 0.617 µM) | > 32 | 2 | 16 | 0.06 (≈ 0.037 µM)
